Values belong to the molecule of their own block, whether it stands above or below them.
Key:
SK-OV-3 cells = assay: SK-OV-3 cell growth inhibition test (MTT assay); type: cell-based, human; settings: growth inhibition at 667 nM, 69 h
Procedure: SK-OV-3 Cell Growth Inhibition Test (MTT Assay)
Cell strains: SK-OV-3 (human ovarian cancer cell strains); MTT; antitumor compounds; DMSO.
(§1) II. Reagents and Consumable Materials
Culture medium: 90% McCoy's 5A+10% FBS; Pancreatin (0.25% (w/v) solution was formulated with PBS, 0.53 mM of EDTA was added in the formulation); PBS; 96-well culture plate.
(§2) 1. A plate (10 cm) of cells in logarithmic growth phase that were normally cultured was collected;
(§3) 2. The culture solution was sucked out. The plate was washed with 5 mL of PBS once or twice;
(§4) 3. PBS was sucked out. 1.5 mL of 0.25% pancreatin was added to infiltrate the cells;
4. The pancreatin was sucked out. The culture plate was placed in an incubator. Digestion was carried out for about 5 min at 37° C.;
(§5) 5. 4.5 mL of complete culture solution was added to the culture plate to stop the digestion. The cells were carefully scoured with micropipette (1 ml) to give a uniform cell suspension. The suspension was implanted into a 96-well cell culture disc by 4000 cells/100 μL per well. The culture plate was incubated overnight under 5% CO2 at 37° C. In day 2, 100 μL of culture solution comprising a compound was added in each well. The plate was further incubated for 69 h under 5% CO2 at 37° C.;
(§6) 6. The culture solution was sucked out;
(§7) 7. 100 μL of serum-free culture solution containing 0.5 mg/mL MTT was added in each well. The plate was incubated for 3 h;
(§8) 8. The culture solution was carefully sucked out;
9. 100 μL of DMSO was added in each well and vibrated to dissolve;
(§9) 10. OD values were determined at 490 nM.
(§10) IV. Results and Treatments
(§11) 1. Calculation of Relative Inhibition Ratio The inhibition ratio of a compound on cell growth=(PC−n)/(PC−NC)×100%
(§12) PC: OD values of cells after normal growth in control wells without a compound;
(§13) n: OD values of cells after growth in test wells with a compound;
(§14) NC: Background OD values of blank wells without a compound and cells.

BxPc-3 cells = assay: BxPc-3 cell growth inhibition test (MTT assay); type: cell-based, human; settings: growth inhibition at 2000 nM, 70 h
Procedure: BxPc-3 Cell Growth Inhibition Test (MTT Assay)
Cell strains: BxPC-3 (human pancreatic cancer cell strains); MTT; antitumor compounds; DMSO.
as §1
(§15) Culture medium: 90% RPMI-1640+10% FBS; Pancreatin (0.25% (w/v) solution was formulated with PBS, 0.53 mM of EDTA was added in the formulation); PBS; 96-well culture plate.
as §2, §3, §4
4. The culture plate was placed in an incubator. Digestion was carried out for about 8 min at 37° C.;
as §5, with “5000” for “4000”, “70” for “69”
as §6, §7, §8
(§16) 9. 100 μL of DMSO was added into each well and vibrated to dissolve;
as §9, §10, §11, §12, §13, §14

NCI-H446 cells = assay: NCI-H446 cell growth inhibition test (MTT assay); type: cell-based, human; settings: growth inhibition at 222 nM, 70 h
Procedure: NCI-H446 Cell Growth Inhibition Test (MTT Assay)
Cell strains: NCI-H446 (human small cell lung cancer cell strains); MTT; antitumor compounds; DMSO.
as §1, §15, §2, §3, §4
4. The culture plate was placed in an incubator. Digestion was carried out for about 3 min at 37° C.;
as §5, with “3” for “4.5”, “70” for “69”
as §6, §7, §8, §16, §9, §10, §11, §12, §13, §14

MDA-MB-453 cells = assay: MDA-MB-453 cell growth inhibition test (SRB assay); type: cell-based, human; settings: growth inhibition at 2000 nM, 69.5 h
Procedure: MDA-MB-453 Cell Growth Inhibition Test (SRB Assay)
Cell strains: MDA-MB-453 (human breast cancer cell strains); SRB: 0.4% (w/v) working solution was formulated with 1% glacial acetic acid, reserved at 4° C.; antitumor compounds; DMSO.
as §1
Culture medium: 90% L15+10% FBS; pancreatin (0.25% (w/v) solution was formulated with PBS, 0.53 mM of EDTA was added in the formulation); PBS; 96-well culture plate.
as §2, §3
(§17) 3. 1.5 mL of 0.25% pancreatin was added to the plate to infiltrate the cells;
(§18) 4. The pancreatin was sucked out. The culture plate was placed in an incubator. Digestion was carried out for about 3 min at 37° C.;
as §5, with “4” for “4.5”, “uniform single” for “uniform”, “plate” for “disc”, “7000” for “4000”, “well.” for “well. The plate was further incubated for 69 h under 5% CO2 at 37° C.;”
The plate was further incubated for 69.5 h under 5% CO2 at 37° C.;
(§19) 6. The culture solution was sucked out. 100 uL of TCA fixed cells which were diluted to 10% were added to each well. The plate was kept in a refrigerator for 1 h at 4° C.
(§20) 7. TCA stationary liquid was sucked out. Each well was washed with 150 μL of ddH2O five times;
(§21) 8. After the stationary liquid was cleansed, the plate was dried in the air at the room temperature;
(§22) 9. 60 μL of SRB staining solution was added in each well. The well was stained for 15 min at the room temperature;
(§23) 10. The SRB staining solution was sucked out. Each well was washed with 150 μL of 1% glacial acetic acid five times;
(§24) 11. After the SRB staining solution was cleansed, the plate was dried in the air at the room temperature;
(§25) 12. 100 μL of 10 mM Tris was added in each well. The plate was vibrated to dissolve out SRB;
(§26) 13. OD values were determined at 570 nM.
as §10, §11, §12, §13, §14

22Rv1 cells = assay: 22Rv1 cell growth inhibition test (SRB assay); type: cell-based, human; settings: growth inhibition at 222 nM, 73 h
Procedure: 22Rv1 Cell Growth Inhibition Test (SRB Assay)
Cell strains: 22Rv1 (human prostate cancer cell strains); SRB: 0.4% (w/v) working solution was formulated with 1% glacial acetic acid, reserved at 4° C.; antitumor compounds; DMSO.
as §1, §15, §2, §3, §17, §18
as §5, with “4” for “4.5”, “uniform single” for “uniform”, “plate” for “disc”, “7000” for “4000”, “73” for “69”
as §19, §20, §21, §22, §23, §24, §25, §26, §10, §11, §12, §13, §14

[1] = Solubility of the compound in water; type: physicochemical

Structure (SMILES): COc1cccc2c1C(=O)c1c(O)c3c(c(O)c1C2=O)CC(O)(C(=O)COC(=O)CCC(=O)NCCc1ccccn1)CC3OC1CC(n2cccc2)C(O)C(C)O1 (stereo not drawn) [Example 34]
Inhibition Ratio (%) (SK-OV-3 cells): 59.4%
Inhibition Ratio (%) (BxPc-3 cells): 84%
Inhibition Ratio (%) (NCI-H446 cells): 60.7%
Inhibition Ratio (%) (MDA-MB-453 cells): 80.5%
Inhibition Ratio (%) (22Rv1 cells): 63.3%

Structure (SMILES): COc1cccc2c1C(=O)c1c(O)c3c(c(O)c1C2=O)CC(O)(C(=O)COC(=O)CCCC(=O)NCCc1ccccn1)CC3OC1CC(n2cccc2)C(O)C(C)O1 (stereo not drawn) [Example 35]
Inhibition Ratio (%) (SK-OV-3 cells): 57.8%
Inhibition Ratio (%) (BxPc-3 cells): 81.3%
Inhibition Ratio (%) (NCI-H446 cells): 57.2%
Inhibition Ratio (%) (MDA-MB-453 cells): 77.1%
Inhibition Ratio (%) (22Rv1 cells): 58.5%

Structure (SMILES): COc1cccc2c1C(=O)c1c(O)c3c(c(O)c1C2=O)CC(O)(C(=O)COC(=O)CCC(=O)NCCc1ccc(S(N)(=O)=O)cc1)CC3OC1CC(n2cccc2)C(O)C(C)O1 (stereo not drawn) [Example 38]
Inhibition Ratio (%) (SK-OV-3 cells): 67.6%
Inhibition Ratio (%) (BxPc-3 cells): 82.4%
Inhibition Ratio (%) (NCI-H446 cells): 62.6%
Inhibition Ratio (%) (MDA-MB-453 cells): 75.8%
Inhibition Ratio (%) (22Rv1 cells): 56.3%

Structure (SMILES): CCN1CCN(C(=O)CCC(=O)OCC(=O)C2(O)Cc3c(O)c4c(c(O)c3C(OC3CC(n5cccc5)C(O)C(C)O3)C2)C(=O)c2c(OC)cccc2C4=O)CC1 (stereo not drawn) [Example 40]
Inhibition Ratio (%) (SK-OV-3 cells): 47.9%
Inhibition Ratio (%) (BxPc-3 cells): 76.5%
Inhibition Ratio (%) (NCI-H446 cells): 49%
Inhibition Ratio (%) (MDA-MB-453 cells): 73%
Inhibition Ratio (%) (22Rv1 cells): 50.5%

Structure (SMILES): COc1cccc2c1C(=O)c1c(O)c3c(c(O)c1C2=O)CC(O)(C(=O)COC(=O)CCC(=O)N1CCN(CCCN(C)C)CC1)CC3OC1CC(n2cccc2)C(O)C(C)O1 (stereo not drawn) [Example 44]
Inhibition Ratio (%) (SK-OV-3 cells): 52.3%
Inhibition Ratio (%) (BxPc-3 cells): 78.5%
Inhibition Ratio (%) (NCI-H446 cells): 46.3%
Inhibition Ratio (%) (MDA-MB-453 cells): 68.5%
Inhibition Ratio (%) (22Rv1 cells): 48.5%

Structure (SMILES): COc1cccc2c1C(=O)c1c(O)c3c(c(O)c1C2=O)CC(O)(C(=O)COC(=O)CCC(=O)NCCO)CC3OC1CC(n2cccc2)C(O)C(C)O1 (stereo not drawn) [Example 60]
Inhibition Ratio (%) (SK-OV-3 cells): 58.9%
Inhibition Ratio (%) (BxPc-3 cells): 83.4%
Inhibition Ratio (%) (NCI-H446 cells): 52.5%
Inhibition Ratio (%) (MDA-MB-453 cells): 76.3%
Inhibition Ratio (%) (22Rv1 cells): 52.9%

Structure (SMILES): COc1cccc2c1C(=O)c1c(O)c3c(c(O)c1C2=O)CC(O)(C(=O)COC(=O)CCC(=O)N(CCO)CCO)CC3OC1CC(n2cccc2)C(O)C(C)O1 (stereo not drawn) [Example 64]
Inhibition Ratio (%) (SK-OV-3 cells): 65.9%
Inhibition Ratio (%) (BxPc-3 cells): 83.7%
Inhibition Ratio (%) (NCI-H446 cells): 51.6%
Inhibition Ratio (%) (MDA-MB-453 cells): 73.5%
Inhibition Ratio (%) (22Rv1 cells): 54.8%

Structure (SMILES): COc1cccc2c1C(=O)c1c(O)c3c(c(O)c1C2=O)CC(O)(C(=O)COC(=O)CCC(N)=O)CC3OC1CC(n2cccc2)C(O)C(C)O1 (stereo not drawn) [Example 66]
Inhibition Ratio (%) (SK-OV-3 cells): 66.5%
Inhibition Ratio (%) (BxPc-3 cells): 83.1%
Inhibition Ratio (%) (NCI-H446 cells): 56.2%
Inhibition Ratio (%) (MDA-MB-453 cells): 73.9%
Inhibition Ratio (%) (22Rv1 cells): 59%

solubility of the compound in water [1]: more than 22 mg/ml
Structure (SMILES): CC(=O)O.COc1cccc2c1C(=O)c1c(O)c3c(c(O)c1C2=O)CC(O)(C(=O)COC(=O)CCC(=O)NCCCN1CCOCC1)CC3O[C@H]1C[C@H](n2cccc2)[C@H](O)[C@H](C)O1 (stereo partly drawn) [Example 78, 10-((3′-(pyrrol-1-yl)-2′,3′,6′-trideoxy-alphal-l-lyxo-hexylpyranyl)oxy)-7,8,9,10-tetrahydro-6,8,11-trihydroxy-13-oxo-14-(4-((3-(morpholin-1-yl)propyl)amino)-4-oxo-butyrato)-1-methoxy-5,12-naphthalenedione acetate]

solubility of the compound in water [1]: more than 5 mg/ml
Structure (SMILES): CC(=O)O.COc1cccc2c1C(=O)c1c(O)c3c(c(O)c1C2=O)CC(O)(C(=O)COC(=O)CCC(=O)NN1CCN(C)CC1)CC3O[C@H]1C[C@H](n2cccc2)[C@H](O)[C@H](C)O1 (stereo partly drawn) [Example 79]

solubility of the compound in water [1]: more than 11 mg/ml
Structure (SMILES): CC(=O)O.CCN1CCN(C(=O)CCC(=O)OCC(=O)C2(O)Cc3c(O)c4c(c(O)c3C(O[C@H]3C[C@H](n5cccc5)[C@H](O)[C@H](C)O3)C2)C(=O)c2c(OC)cccc2C4=O)CC1 (stereo partly drawn) [Example 80, 10-((3′-(pyrrol-1-yl)-2′,3′,6′-trideoxy-alphal-l-lyxo-hexylpyranyl)oxy)-7,8,9,10-tetrahydro-6,8,11-trihydroxy-13-oxo-14-(4-(4-ethylpiperazin-1-yl)-4-oxo-butyrato)-1-methoxy-5,12-naphthalenedione acetate]

solubility of the compound in water [1]: more than 6 mg/ml
Structure (SMILES): CC(=O)O.COc1cccc2c1C(=O)c1c(O)c3c(c(O)c1C2=O)CC(O)(C(=O)COC(=O)CCC(=O)NCc1ccncc1)CC3O[C@H]1C[C@H](n2cccc2)[C@H](O)[C@H](C)O1 (stereo partly drawn) [Example 82]

solubility of the compound in water [1]: more than 1 mg/ml
Structure (SMILES): CC(=O)O.COc1cccc2c1C(=O)c1c(O)c3c(c(O)c1C2=O)CC(O)(C(=O)COC(=O)CCC(=O)NCc1cccnc1)CC3O[C@H]1C[C@H](n2cccc2)[C@H](O)[C@H](C)O1 (stereo partly drawn) [Example 83]

solubility of the compound in water [1]: more than 12 mg/ml
Structure (SMILES): CC(=O)O.COc1cccc2c1C(=O)c1c(O)c3c(c(O)c1C2=O)CC(O)(C(=O)COC(=O)CCC(=O)NCCc1ccccn1)CC3O[C@H]1C[C@H](n2cccc2)[C@H](O)[C@H](C)O1 (stereo partly drawn) [Example 84]

Structure (SMILES): COc1cccc2c1C(=O)c1c(O)c3c(c(O)c1C2=O)CC(O)(C(=O)COC(=O)CCC(=O)NS(C)(=O)=O)CC3OC1CC(n2cccc2)C(O)C(C)O1 (stereo not drawn) [Example 94]
Inhibition Ratio (%) (SK-OV-3 cells): 71.4%
Inhibition Ratio (%) (BxPc-3 cells): 84.9%
Inhibition Ratio (%) (NCI-H446 cells): 48.4%
Inhibition Ratio (%) (MDA-MB-453 cells): 75.8%
Inhibition Ratio (%) (22Rv1 cells): 60.7%
